In publication PMC9953004, “Scandium-44 Radiolabeled Peptide and Peptidomimetic Conjugates Targeting Neuropilin-1 Co-Receptor as Potential Tools for Cancer Diagnosis and Anti-Angiogenic Therapy” (Biomedicines, 2023):
Where a SMILES comes first, the peptide text is derived from it. Where no end group is shown, it is not given here. Side-chain parts run from the residue outwards. [ ]: non-standard residue; d: D form. The star is where a group is joined. DOTA = O=C(O)CN1CCN(CC(=O)O)CCN(CC(=O)*)CCN(CC(=O)O)CC1; hArg = N=C(N)NCCCC[C@H](N)C(=O)O; Dab = NCC[C@H](N)C(=O)O; Ahx = NCCCCCC(=O)O

How the values were obtained:
VEGF-A165/NRP-1 complex = biological target: T1, VEGF-A165/NRP-1 complex (Homo sapiens, UniProt O14786); experiment: Competitive NRP-1-binding inhibition assay (competitive ELISA, bt-VEGF-A165 vs coated NRP-1); conditions: for IC50 / logIC50 ± SD: inhibition of VEGF-A165/NRP-1 complex formation, mean ± SD, n = 3; for binding affinity for NRP-1: summary of competitive ELISA results
T1 construct: purchased BioLegend (NRP-1); Abcam (bt-VEGF-A165)
T1 sequence (O14786 22-641 limits assumed): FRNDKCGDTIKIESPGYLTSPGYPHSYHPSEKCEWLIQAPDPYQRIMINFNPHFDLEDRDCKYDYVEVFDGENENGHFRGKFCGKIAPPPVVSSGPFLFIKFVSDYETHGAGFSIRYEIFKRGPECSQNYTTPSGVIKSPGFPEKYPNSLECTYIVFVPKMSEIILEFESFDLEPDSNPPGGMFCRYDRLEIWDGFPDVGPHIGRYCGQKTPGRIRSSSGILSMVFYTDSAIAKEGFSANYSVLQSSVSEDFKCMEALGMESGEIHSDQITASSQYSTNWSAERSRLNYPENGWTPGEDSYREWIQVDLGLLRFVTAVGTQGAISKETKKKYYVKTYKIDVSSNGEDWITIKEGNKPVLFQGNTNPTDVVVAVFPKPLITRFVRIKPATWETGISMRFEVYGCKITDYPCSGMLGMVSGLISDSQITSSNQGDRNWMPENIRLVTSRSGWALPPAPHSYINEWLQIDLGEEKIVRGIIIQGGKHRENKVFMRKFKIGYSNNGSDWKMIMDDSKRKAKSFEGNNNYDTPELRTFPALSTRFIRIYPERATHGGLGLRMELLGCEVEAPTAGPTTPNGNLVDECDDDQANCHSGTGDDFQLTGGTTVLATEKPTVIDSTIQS
Experimental: The study of biological activity (inhibition of VEGF-A165/NRP-1 binding) of Sc-1, Sc-1bis, Sc-2, Sc-3 and Ga-3 compounds was tested by competitive ELISA test. The method used was similar to the one previously described. Briefly, the first step was to coat the bottom surface of a 96-well plate using 100 µL (200 ng/well) of recombinant human NRP-1 and incubate overnight at 4 °C. Nonspecific binding was blocked with 0.5% BSA (bovine serum albumin) in PBS. Following this, 50 µL of the solution of tested compound in PBS, in the selected concentrations (100 [µM], 50 [µM], 25 [µM], 12.5 [µM] and […]), and 50 µL (400 ng/mL) of human (bt)-VEGF-A165 in PBS containing 4 µg/mL of heparin were added. After 2 h of incubation at room temperature, the plate was washed and treated with a streptavidin–horseradish peroxidase conjugate in PBS (1:100) for 45 min. After the final wash, the chemiluminescence was quantified immediately after addition of 100 μL chemiluminescent substrate. Wells incubated with (bt)-VEGF-A165 served only as positive control (P), while wells not coated with NRP-1 were used as negative control (NS). Percentages of inhibition were calculated according to the following formula. % inhibition=100% −(S−NS)·100%/P−NS where: S—measured signal, NS—negative control signal, P—positive control signal. Test IC50 [µM] values (mean ± SD of three independent experiments) were determined by nonlinear regression analysis (log(inhibitor) vs. normalized response—variable slope) generated in GraphPad Prism 9.0.0 program (Graph Pad, San Diego, CA, USA).

[1] = type: physicochemical; conditions: pH 7.4
Experimental: (§1) Radioconjugate stability tests in 0.1 M PBS solution, 1 mM cysteine (Cys) solution, 1 mM histidine (His) solution and human serum (HS) were performed under rigorous conditions according to the procedure described in detail in our previous paper. In brief, isolated radioconjugates were dissolved in 50 µL PBS and appropriate volume of Cys, His and HS solution and then incubated at 37 °C. After the specified incubation time (depending on the half-life of a given radionuclide), which was up to 4–8 h for the ^44Sc-radiocompounds, 4 h for the ^68Ga-radiocompounds and about 6–14 days for the ^177Lu-radiocompounds, aliquots of solution were withdrawn from the mixture and the composition of the solution was analyzed on RP-HPLC in System 3 or 4 with gamma detection. The concentrations of Cys and His solutions were about 1000 times higher than that of the studied radiocompound. In the case of the radioconjugate stability study in HS, the concentration of the radiocompound was a maximum of 2–25 nmol/mL in 100% human serum. After incubation, the protein components were precipitated with a 2.5-fold volume excess of ethanol prior to RP-HPLC analysis, and then both the supernatant and precipitate radioactivity were measured with a Wizard gamma counter. The percentage of radioactivity remaining in the supernatant and bound by the precipitated serum protein components was calculated as the ratio of the radioactivity of the supernatant or the precipitate, respectively, to the sum of the radioactivity of the supernatant and the precipitate.

physchem = type: physicochemical; conditions: for logP: pH 7.4, logP ± SD; for logP ± SD: pH 7.4
Experimental: The lipophilicity value, defined as the decimal logarithm (logP) of the partition coefficient (P), was tested in the system of two immiscible (but saturated with each other) phases: 0.1 M PBS solution, pH 7.4, and n-octanol, in three independent experiments. Partition coefficient was determined as a ratio of radioactivity of the organic (n-octanol) and aqueous (PBS solution) phases and was shown as the mean ± SD. The lipophilicity test was carried out as follows: the tested radiocompound dissolved in 10–20 µL of PBS was incubated and intensively mixed in an equal amount of these two phases. After centrifugation, radioactivity of appropriate amounts of the separated organic (500 µL) and aqueous (100 µL) phases were measured on the Wizard gamma counter. Differences in the volume of phases taken for measurement resulted from the very low radioactivity of organic phases and were included in the calculations. Additionally, to confirm the stability of the studied radiocompounds during the experiment, the RP-HPLC analyses of the aqueous phase were performed after each lipophilicity test.

[2] = type: in vitro ADME, human
Experimental: as §1

Molecule	logIC50 ± SD (VEGF-A165/NRP-1 complex)	binding affinity for NRP-1 (VEGF-A165/NRP-1 complex)	stability in PBS buffer [1]	stability in human serum [2]	further results
CC(C)C[C@@H](NC(=O)[C@H]1CCCN1C(=O)[C@H]1CCCN1C(=O)[C@H](N)CCCNC(=N)N)C(=O)N[C@H](Cc1c[nH]c2ccccc12)C(=O)N[C@@H](C(=O)N[C@H](C)C(=O)N[C@H](CCCCNC(=O)CN1CCN(CC(=O)O)CCN(CC(=O)O)CCN(CC(=O)O)CC1)C(=O)O)[C@H](C)O [Ga-3, ^DR7A-^DLys(DOTA-Ga)] (H-[dR][dP][dP][dL][dW][dT][dA][dK](DOTA)-OH)					IC50 (VEGF-A165/NRP-1 complex): > 100 µM
N=C(N)NCCCC[C@H](N)C(=O)NCCCC[C@H](N)C(=O)N[C@@H](CCN)C(=O)N1CCC[C@H]1C(=O)N[C@@H](CCCNC(=N)N)C(=O)O [K4R, Lys(hArg)-Dab-Pro-Arg] (H-K(hArg)[Dab]PR-OH)	−5.32 ± 0.12	high binding affinity			
CC(C)C[C@H](NC(=O)[C@H](Cc1c[nH]c2ccccc12)NC(=O)[C@@H](NC(=O)[C@H](C)NC(=O)CCCCCNC(=O)CN1CCN(CC(=O)O)CCN(CC(=O)O)CCN(CC(=O)O)CC1)[C@@H](C)O)C(=O)N1CCC[C@H]1C(=O)N1CCC[C@H]1C(=O)N[C@@H](CCCNC(=N)N)C(=O)O [Sc-1, Sc-DOTA-Ahx-A7R] ({DOTA-Ahx}-ATWLPPR-OH)	−4.65 ± 0.12	high binding affinity			
CC(C)C[C@H](NC(=O)[C@H](Cc1c[nH]c2ccccc12)NC(=O)[C@@H](NC(=O)[C@H](C)NC(=O)[C@@H](N)CCCCNC(=O)CN1CCN(CC(=O)O)CCN(CC(=O)O)CCN(CC(=O)O)CC1)[C@@H](C)O)C(=O)N1CCC[C@H]1C(=O)N1CCC[C@H]1C(=O)N[C@@H](CCCNC(=N)N)C(=O)O [Sc-1bis, Lys(DOTA-Sc)-A7R] (H-K(DOTA)ATWLPPR-OH)	−4.74 ± 0.01	high binding affinity			
N=C(N)NCCCC[C@H](N)C(=O)NCCCC[C@H](N)C(=O)N[C@@H](CCNC(=O)CCCCCNC(=O)CN1CCN(CC(=O)O)CCN(CC(=O)O)CCN(CC(=O)O)CC1)C(=O)N1CCC[C@H]1C(=O)N[C@@H](CCCNC(=N)N)C(=O)O [Sc-2, Lys(hArg)-Dab(Ahx-DOTA-Sc)-Pro-Arg] (H-K(hArg)[Dab]([Ahx-DOTA])PR-OH)	−4.73 ± 0.03	high binding affinity			
CC(C)C[C@@H](NC(=O)[C@H]1CCCN1C(=O)[C@H]1CCCN1C(=O)[C@H](N)CCCNC(=N)N)C(=O)N[C@H](Cc1c[nH]c2ccccc12)C(=O)N[C@@H](C(=O)N[C@H](C)C(=O)N[C@H](CCCCNC(=O)CN1CCN(CC(=O)O)CCN(CC(=O)O)CCN(CC(=O)O)CC1)C(=O)O)[C@H](C)O [Sc-3, ^DR7A-^DLys(DOTA-Sc)] (H-[dR][dP][dP][dL][dW][dT][dA][dK](DOTA)-OH)		very low binding affinity			
CC(C)C[C@H](NC(=O)[C@H](Cc1c[nH]c2ccccc12)NC(=O)[C@@H](NC(=O)[C@H](C)NC(=O)CCCCCNC(=O)CN1CCN(CC(=O)O)CCN(CC(=O)O)CCN(CC(=O)O)CC1)[C@@H](C)O)C(=O)N1CCC[C@H]1C(=O)N1CCC[C@H]1C(=O)N[C@@H](CCCNC(=N)N)C(=O)O [^44Sc-1, [^44Sc]Sc-DOTA-Ahx-A7R, metal not drawn] ({DOTA-Ahx}-ATWLPPR-OH)			complete stability	insufficient stability	logP (physchem): -3.44 ± 0.02
CC(C)C[C@H](NC(=O)[C@H](Cc1c[nH]c2ccccc12)NC(=O)[C@@H](NC(=O)[C@H](C)NC(=O)[C@@H](N)CCCCNC(=O)CN1CCN(CC(=O)O)CCN(CC(=O)O)CCN(CC(=O)O)CC1)[C@@H](C)O)C(=O)N1CCC[C@H]1C(=O)N1CCC[C@H]1C(=O)N[C@@H](CCCNC(=N)N)C(=O)O [^44Sc-1bis, [^44Sc]Lys(DOTA-Sc)-A7R, metal not drawn] (H-K(DOTA)ATWLPPR-OH)			complete stability	insufficient stability	logP ± SD (physchem): −3.56 ± 0.06
N=C(N)NCCCC[C@H](N)C(=O)NCCCC[C@H](N)C(=O)N[C@@H](CCNC(=O)CCCCCNC(=O)CN1CCN(CC(=O)O)CCN(CC(=O)O)CCN(CC(=O)O)CC1)C(=O)N1CCC[C@H]1C(=O)N[C@@H](CCCNC(=N)N)C(=O)O [^44Sc-2, [^44Sc]Sc-DOTA-Ahx-K4R, metal not drawn] (H-K(hArg)[Dab]([Ahx-DOTA])PR-OH)			complete stability	insufficient stability	logP (physchem): -2.57 ± 0.02
CC(C)C[C@@H](NC(=O)[C@H]1CCCN1C(=O)[C@H]1CCCN1C(=O)[C@H](N)CCCNC(=N)N)C(=O)N[C@H](Cc1c[nH]c2ccccc12)C(=O)N[C@@H](C(=O)N[C@H](C)C(=O)N[C@H](CCCCNC(=O)CN1CCN(CC(=O)O)CCN(CC(=O)O)CCN(CC(=O)O)CC1)C(=O)O)[C@H](C)O [^44Sc-3, [^44Sc]^DR7A-^DLys(DOTA-Sc), metal not drawn] (H-[dR][dP][dP][dL][dW][dT][dA][dK](DOTA)-OH)			complete stability	insufficient stability	logP ± SD (physchem): −3.61 ± 0.03
CC(C)C[C@@H](NC(=O)[C@H]1CCCN1C(=O)[C@H]1CCCN1C(=O)[C@H](N)CCCNC(=N)N)C(=O)N[C@H](Cc1c[nH]c2ccccc12)C(=O)N[C@@H](C(=O)N[C@H](C)C(=O)O)[C@H](C)O [^DR7A, DArg-DPro-DPro-DLeu-DTrp-DThr-DAla, reference compound] (H-[dR][dP][dP][dL][dW][dT][dA]-OH; C-terminus assumed)		very low binding affinity			IC50 (VEGF-A165/NRP-1 complex): > 100 µM
ATWLPPR-OH [A7R, Ala-Thr-Trp-Leu-Pro-Pro-Arg, reference compound]	−4.74 ± 0.02	high binding affinity			
